From ChEMBL document CHEMBL3507680, “University of Dundee, Gates Library screen for HepG2 cell viability”

Test: Human HepG2 cell viability assay in 384 well format
Format: toxicity, cell-based
Parameters: dose 125 nL, time 70.5 hour; cytotoxicity at 70.5 h: concentration not given beside the values
Conditions: HepG2 cells, read-out: Inhibition

| SMILES | cytotoxicity at 70.5 h [%] |
| --- | --- |
| CCCc1ccc2oc(C(=O)N3CCC(O)CC3)c(C)c2c1 | 6.68 |
| Cc1ncsc1CCN(C)C1CCN(c2ncnc3[nH]cnc23)CC1 | -6.66 |
| CCCc1nnc(NC(C)c2ccc3c(c2)OCCO3)o1 (centres undefined) | 19.1 |
| CCn1c(C)nnc1SCCNc1cc(COC)ncn1 | -22.7 |
| CCC(C(=O)N1CCN(S(=O)(=O)N2CCCC2)CC1)n1cccn1 (centres undefined) | -3.42 |
| CN(Cc1ccc(-n2cccn2)cc1)c1cc(N)nc(N)n1 | 18.4 |
| CC(C)c1nc(CN(C)C(=O)Cn2nc3ccccc3n2)no1 | -10.4 |
| O=C(c1ccc2ccccc2c1)C1CCCN(C(=O)Cn2cnnn2)C1 (centres undefined) | -3.65 |
| Cc1cnc(C)c(N2CCN(CC3CCCO3)CC2)n1 (centres undefined) | -6.94 |
| O=C(O)[C@@H]1CN(C(=O)CCC(F)(F)F)C[C@H]1c1ccncc1 | -1.6 |
| CN(Cc1cnn(C)c1)c1nccc(-c2cc(C(=O)O)ccn2)n1 | 18.1 |
| CNC(C(=O)N1CCC(c2nccn2C(C)C)CC1)c1ccccc1 (centres undefined) | -8.05 |
| CCCc1n[nH]c(=O)n1Cc1ccc(OC)cc1 | 12.2 |
| CCCN1CCC(CC(=O)N2CCC(C(O)c3nccn3C)CC2)CC1 (centres undefined) | -11.6 |
| CCn1nc(CC(C)C)cc1C(=O)N1CCC2(CC1)[C@H](O)C[C@@H]2O | 1.5 |
| O=C(O)C1(Cc2cccc(Cl)c2)CCCN(c2ncnc3[nH]ccc23)C1 (centres undefined) | -13 |
| Cc1cc(C)c2nc(C)cc(C(=O)NCc3csc(N(C)C)n3)c2c1 | 27.3 |
| CS(=O)(=O)N1C[C@H]2CNC[C@@]2(C(=O)NCCCc2ccccc2)C1 | -3.07 |
| COc1ccc(CN(CC2CCCO2)C(=O)CN2CCOC2=O)cc1 (centres undefined) | -14.7 |
| CCn1c(Cn2cncn2)nnc1C1CCN(C[C@H]2[C@@H]3CNC[C@@H]32)CC1 | -20.4 |
| COC(=O)c1ccc(CNC(=O)CN2C[C@@H](NC(C)=O)[C@H](C(C)C)C2)o1 | -6.07 |
| NC(=O)Cn1ccnc1C1CCCN(Cc2ccccc2OC(F)F)C1 (centres undefined) | -6.45 |
| CCc1nc(C)cc(N2CCCC(C(=O)c3ccc(OC)cc3C)C2)n1 (centres undefined) | 6.28 |
| CCCN1C[C@H]2CC[C@@H]1CN(Cc1ccc(Cn3cccn3)cc1)C2 | -7.61 |
| CN1CCN(C(=O)N2CCC3(CCCN(C4CCOCC4)C3=O)C2)CC1 (centres undefined) | -0.535 |
| CCc1ccc(CN2CCN(c3ncc(Cl)cn3)CC2)nc1 | -5.54 |
| COc1cccc(OCCc2cncc(C(N)=O)c2)c1 | -9.46 |

| SMILES | cytotoxicity at 70.5 h [%] |
| --- | --- |
| O=C(O)[C@@H]1CN(Cc2cnc(C3CCCCC3)nc2)C[C@H]1C1CC1 | 10.9 |
| Cc1cc(C(=O)N2CCCCC2c2nc3cc(F)ccc3[nH]2)nn1C (centres undefined) | -6.6 |
| Cc1ccc(C)c(CN2C[C@H]3CC[C@@H]2CN(C(=O)c2cccnc2)C3)c1 | 1.01 |
| CCN1CCC(CC(=O)N2CCn3cccc3C2c2cccnc2)CC1 (centres undefined) | 28.5 |
| Cc1cccc(CN2C[C@@H](CN3CCCN(C)CC3)C[C@H](CO)C2)n1 | -5.2 |
| Cn1ccnc1CN1CC[C@@H]2[C@@H](CCC(=O)N2CCc2c[nH]cn2)C1 | 27.2 |
| O=C(c1cnc(Nc2ccccc2)nc1)N1CCC(O)(CO)CC1 | -6.53 |
| COCCCC1(C(=O)O)CCCN(C(=O)c2ccc(C(C)C)[nH]c2=O)C1 (centres undefined) | -5.84 |
| CC(C)N1CCCn2nc(C(=O)NCCc3ccccn3)cc2C1 | -9.32 |
| Cc1cccc(C(=O)N2C[C@H]3CC[C@@H]2CN(S(=O)(=O)N(C)C)C3)n1 | -10.2 |
| CS(=O)(=O)Nc1ccc2c(c1)NC(=O)CC2c1cnn2cccnc12 (centres undefined) | 17.5 |
| COc1ncc(C(=O)N(Cc2cnn(C)c2)C(C)C)cn1 | -7.11 |
| Cc1ccc(CN2C[C@H]3C(=O)N(CC4CC4)C[C@@]3(C(=O)O)C2)c(F)c1F | 9.58 |
| Cc1ncoc1C(=O)N1CCOC(CC2CCCCC2)C1 (centres undefined) | -5.24 |
| CC[C@H]1COCCN1C(=O)c1cnc(N2CCN(C)CC2)nc1C | -8.1 |
| COCCN1CCC(CN(CC2CCCO2)C(=O)C2CCOCC2)CC1 (centres undefined) | -5.33 |
| Cc1ccccc1N1CCCN(C(=O)CCc2nncn2C)CC1 | -7.29 |
| Cc1nccc(N[C@H]2CN(C(=O)CN3CCOCC3)C[C@@H]2C(C)C)n1 | -1.67 |
| Cc1c(NC(=O)c2cnc[nH]2)cccc1C(=O)NC(C)(C)C | -5.11 |
| CCOc1c(CNC2CSCCSC2)cccc1OC | 20.2 |
| CC(C)C[C@H](Nc1nc(C2CCCC2)nc2c1cnn2C)C(N)=O | -6.77 |
| COc1ccccc1Oc1ncccc1CNC(=O)[C@H](C)O | -6.71 |
| CCN1CC(C(=O)N2CCc3cc(C(N)=O)n(C)c3C2)CCC1=O (centres undefined) | -6.08 |
| Cc1ccc([C@@H]2CN(C(=O)CCc3cc(Cl)no3)C[C@H]2N(C)C)cc1 | 11.1 |
| O=C(COCc1ccccc1)N1CCN(Cc2ccccc2F)C(=O)C1 | -9.08 |
| Cc1nn(C)c(C)c1CN(C)C(=O)c1cccc(CCC(C)(C)O)c1 | -0.259 |
| CC(c1ccco1)N(C)Cc1cccc(C(=O)Nc2nccn2C)c1 (centres undefined) | -5.04 |

| SMILES | cytotoxicity at 70.5 h [%] |
| --- | --- |
| O=C(c1cnn[nH]1)N1CCCC1c1nc2cc(F)ccc2[nH]1 (centres undefined) | -12.1 |
| COCCC(=O)N1C[C@H](C(C)C)[C@@H](N(C)C)C1 | -14.3 |
| CCC1CN(C(=O)c2ccccc2C#N)CCN1C(C)C (centres undefined) | 14.9 |
| CCS(=O)(=O)c1ncc(CN(C)C)n1Cc1ccccc1 | -3.58 |
| CCn1ncnc1CN1CCOC(Cc2cccc3ccccc23)C1 (centres undefined) | -7.56 |
| O=C1CCC(C(=O)N2CCC(Cn3cc(C4CCCC4)nn3)CC2)=NN1 | -2.69 |
| O=S(=O)(N1CCOCC1)N1CCCCC1CCc1ccc(O)cc1 (centres undefined) | -1.47 |
| COc1ccccc1OCCCN1C(=O)CCNC1=O | 32 |
| CN(Cc1ccncn1)C(=O)c1cccc(CCC(C)(C)O)c1 | -2.23 |
| CCOC(=O)CC1CCCCN1C(=O)c1cnc(C)cn1 (centres undefined) | -4.78 |
| COCCN1CC2(CCCN(C(=O)NCc3ccccc3)C2)CCC1=O (centres undefined) | 0.704 |
| O=C(c1ccc(-c2nc[nH]n2)cc1)N1CCOC(C(F)(F)F)C1 (centres undefined) | 23.3 |
| CCN(C)S(=O)(=O)N1CCCC(c2cccc(C(=O)O)c2)C1 (centres undefined) | -8.54 |
| Cc1cnccc1NCCn1ccnc1C1CCCCC1 | 0.0765 |
| COCCn1ccnc1CN1CCc2[nH]cnc2C1c1cnn(C)c1C (centres undefined) | -13.2 |
| Cc1cc(C)c2c(NCC3(O)CCCCC3)ncnc2n1 | -2.73 |
| COc1ccc(C(C(=O)O)N2CCN(C3CCCC3)CC2)cc1OC (centres undefined) | 12.5 |
| CCc1cn[nH]c1C1CCN(c2cc(C)c3cccc(OC)c3n2)CC1 | 0.472 |
| COCCS(=O)(=O)c1ncc(CN(C)C)n1Cc1ccccc1 | 4.62 |
| Cc1nc2cc(OCc3nc(C(=O)NC(C)(CO)CO)co3)ccc2s1 | 6.62 |
| COc1ccc(-n2cccn2)c(CN2CCOCC(CN(C)C)C2)c1 (centres undefined) | 18.8 |
| COCCn1cncc1Cn1cccc(C(F)(F)F)c1=O | 6.51 |
| FC(F)(F)c1ccccc1CCC1CCCN(Cc2cscn2)C1 (centres undefined) | 44.3 |
| CN(Cc1nc(Cc2cccc(C(F)(F)F)c2)no1)C(C1CC1)C1CC1 | -9.87 |
| CCN(CCN1CCOCC1)C(=O)c1cccnc1 | 4.89 |
